Data taken from ChEMBL document CHEMBL1135365, “Mixed lineage kinase activity of indolocarbazole analogues” (Bioorg Med Chem Lett, 2002).

Columns and labels:
[1] = biological target: Mitogen-activated protein kinase kinase kinase 9 (Homo sapiens, UniProt P80192); assay: Inhibition of Mixed lineage kinase 1 (MLK1)
[2] = biological target: High affinity nerve growth factor receptor (Homo sapiens, UniProt P04629); assay: Inhibition of NGF high affinity receptor tyrosine kinase TrkA
[3] = biological target: Mitogen-activated protein kinase kinase kinase 11 (Homo sapiens, UniProt Q16584); assay: Inhibition of Mixed lineage kinase 3 (MLK3)
Mitogen-activated protein kinase kinase kinase 11, sequence (Q16584 whole entry): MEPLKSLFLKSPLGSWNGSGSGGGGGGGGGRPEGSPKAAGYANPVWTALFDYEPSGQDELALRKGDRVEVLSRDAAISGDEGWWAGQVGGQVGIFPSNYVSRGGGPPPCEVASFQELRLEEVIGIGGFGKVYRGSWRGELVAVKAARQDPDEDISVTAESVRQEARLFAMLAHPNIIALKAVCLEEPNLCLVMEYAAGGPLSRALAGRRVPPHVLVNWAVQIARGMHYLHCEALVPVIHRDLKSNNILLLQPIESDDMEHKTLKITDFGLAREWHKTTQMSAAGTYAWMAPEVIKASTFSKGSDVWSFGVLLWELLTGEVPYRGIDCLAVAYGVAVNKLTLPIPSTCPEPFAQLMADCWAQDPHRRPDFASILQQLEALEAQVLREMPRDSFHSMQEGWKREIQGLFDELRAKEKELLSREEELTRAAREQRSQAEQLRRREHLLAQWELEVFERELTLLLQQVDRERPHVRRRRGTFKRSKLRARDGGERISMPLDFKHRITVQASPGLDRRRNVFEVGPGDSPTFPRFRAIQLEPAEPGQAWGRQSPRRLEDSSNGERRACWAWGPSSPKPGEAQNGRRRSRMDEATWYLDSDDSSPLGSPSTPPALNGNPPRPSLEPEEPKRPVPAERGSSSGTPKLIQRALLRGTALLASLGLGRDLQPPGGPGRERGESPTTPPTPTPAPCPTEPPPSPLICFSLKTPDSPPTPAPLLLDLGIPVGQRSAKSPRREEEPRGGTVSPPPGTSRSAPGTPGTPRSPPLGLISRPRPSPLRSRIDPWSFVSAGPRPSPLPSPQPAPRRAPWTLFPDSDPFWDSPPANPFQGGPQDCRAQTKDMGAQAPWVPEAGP

[4] = biological target: Mitogen-activated protein kinase kinase kinase 10 (Homo sapiens, UniProt Q02779); assay: Inhibition of Mixed lineage kinase 2(MLK2)
Mitogen-activated protein kinase kinase kinase 10, sequence (Q02779 whole entry): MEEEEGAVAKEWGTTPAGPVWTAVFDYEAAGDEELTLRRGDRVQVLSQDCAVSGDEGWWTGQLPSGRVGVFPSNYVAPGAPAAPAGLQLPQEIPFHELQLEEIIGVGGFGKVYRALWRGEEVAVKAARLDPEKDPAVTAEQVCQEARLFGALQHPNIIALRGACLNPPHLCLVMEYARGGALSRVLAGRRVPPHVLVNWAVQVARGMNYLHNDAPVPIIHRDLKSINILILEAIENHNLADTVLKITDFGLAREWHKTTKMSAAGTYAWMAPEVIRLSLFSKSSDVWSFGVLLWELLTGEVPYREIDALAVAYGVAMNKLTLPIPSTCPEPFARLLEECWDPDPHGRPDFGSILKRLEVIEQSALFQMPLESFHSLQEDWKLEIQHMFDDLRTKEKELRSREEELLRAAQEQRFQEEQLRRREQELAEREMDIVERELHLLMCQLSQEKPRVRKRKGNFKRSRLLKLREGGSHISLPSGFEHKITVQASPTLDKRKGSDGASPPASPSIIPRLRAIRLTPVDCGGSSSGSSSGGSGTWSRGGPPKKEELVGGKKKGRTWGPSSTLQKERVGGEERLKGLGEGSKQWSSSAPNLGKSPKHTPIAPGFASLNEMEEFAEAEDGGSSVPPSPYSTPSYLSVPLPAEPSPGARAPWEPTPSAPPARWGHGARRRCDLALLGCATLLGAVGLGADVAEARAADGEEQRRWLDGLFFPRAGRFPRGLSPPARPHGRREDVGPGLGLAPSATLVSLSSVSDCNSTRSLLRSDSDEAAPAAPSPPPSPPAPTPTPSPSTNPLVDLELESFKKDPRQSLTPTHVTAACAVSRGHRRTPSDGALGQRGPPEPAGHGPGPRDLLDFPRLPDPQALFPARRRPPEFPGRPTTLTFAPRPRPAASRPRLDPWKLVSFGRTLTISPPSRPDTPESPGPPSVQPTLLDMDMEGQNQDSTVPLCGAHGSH

Protein kinase C (PKC) = assay: Inhibition of protein kinase C (PKC) from rat brain homogenate

High affinity nerve growth factor receptor, sequence (P04629 whole entry): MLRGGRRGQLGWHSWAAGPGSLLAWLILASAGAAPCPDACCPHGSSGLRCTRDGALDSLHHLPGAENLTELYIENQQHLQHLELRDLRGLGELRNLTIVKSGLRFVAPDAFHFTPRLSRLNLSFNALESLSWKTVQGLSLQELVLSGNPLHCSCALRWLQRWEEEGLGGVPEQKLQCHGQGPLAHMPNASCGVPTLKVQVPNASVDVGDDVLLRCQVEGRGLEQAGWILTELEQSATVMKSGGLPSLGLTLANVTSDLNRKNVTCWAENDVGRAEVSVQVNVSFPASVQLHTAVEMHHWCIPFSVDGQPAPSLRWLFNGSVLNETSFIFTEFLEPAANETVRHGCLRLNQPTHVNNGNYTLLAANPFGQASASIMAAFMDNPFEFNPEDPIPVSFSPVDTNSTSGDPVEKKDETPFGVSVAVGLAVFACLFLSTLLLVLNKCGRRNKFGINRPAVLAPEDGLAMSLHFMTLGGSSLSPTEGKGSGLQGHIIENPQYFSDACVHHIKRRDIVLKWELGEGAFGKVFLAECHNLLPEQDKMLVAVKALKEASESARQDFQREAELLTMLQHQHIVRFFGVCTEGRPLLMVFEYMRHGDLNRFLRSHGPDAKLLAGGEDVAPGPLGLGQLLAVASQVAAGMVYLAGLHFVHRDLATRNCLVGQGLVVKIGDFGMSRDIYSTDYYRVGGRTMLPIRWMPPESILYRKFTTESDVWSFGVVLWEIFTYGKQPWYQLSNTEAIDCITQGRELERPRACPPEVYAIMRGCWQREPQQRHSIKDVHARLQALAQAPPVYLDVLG
Mitogen-activated protein kinase kinase kinase 9, sequence (P80192 whole entry): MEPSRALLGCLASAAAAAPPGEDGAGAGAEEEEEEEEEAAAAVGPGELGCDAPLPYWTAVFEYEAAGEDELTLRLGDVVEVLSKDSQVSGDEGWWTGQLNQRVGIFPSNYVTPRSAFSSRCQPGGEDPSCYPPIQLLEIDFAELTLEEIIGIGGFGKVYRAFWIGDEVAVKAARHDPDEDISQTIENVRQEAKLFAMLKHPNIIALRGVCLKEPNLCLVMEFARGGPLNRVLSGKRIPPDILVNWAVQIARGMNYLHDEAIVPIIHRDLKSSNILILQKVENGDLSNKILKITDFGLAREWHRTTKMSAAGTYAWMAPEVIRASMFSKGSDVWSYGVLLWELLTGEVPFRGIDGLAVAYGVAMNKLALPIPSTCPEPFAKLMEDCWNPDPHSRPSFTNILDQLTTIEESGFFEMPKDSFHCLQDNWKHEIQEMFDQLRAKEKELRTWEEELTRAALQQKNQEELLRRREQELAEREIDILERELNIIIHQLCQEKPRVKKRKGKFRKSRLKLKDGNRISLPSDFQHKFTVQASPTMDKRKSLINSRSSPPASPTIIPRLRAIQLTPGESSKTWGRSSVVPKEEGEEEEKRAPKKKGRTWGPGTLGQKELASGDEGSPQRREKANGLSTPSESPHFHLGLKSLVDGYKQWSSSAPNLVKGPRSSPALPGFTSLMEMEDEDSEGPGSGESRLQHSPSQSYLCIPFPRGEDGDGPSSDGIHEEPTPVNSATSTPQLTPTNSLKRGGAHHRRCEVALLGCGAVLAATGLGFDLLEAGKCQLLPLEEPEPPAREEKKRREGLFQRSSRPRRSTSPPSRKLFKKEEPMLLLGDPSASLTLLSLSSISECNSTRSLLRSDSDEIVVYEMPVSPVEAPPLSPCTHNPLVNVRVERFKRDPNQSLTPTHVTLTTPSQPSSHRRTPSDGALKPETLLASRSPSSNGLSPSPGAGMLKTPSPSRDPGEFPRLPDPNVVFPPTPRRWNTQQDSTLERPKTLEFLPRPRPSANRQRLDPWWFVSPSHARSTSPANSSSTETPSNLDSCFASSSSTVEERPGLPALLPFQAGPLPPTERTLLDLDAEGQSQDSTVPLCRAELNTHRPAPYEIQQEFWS

| SMILES | IC50 [1] [nM] | IC50 [2] [nM] | IC50 [3] [nM] | IC50 [4] [nM] | IC50 (Protein kinase C (PKC)) [nM] |
| --- | --- | --- | --- | --- | --- |
| CCOCc1ccc2c(c1)c1c3c(c4c5cc(COCC)ccc5n5c4c1n2[C@H]1C[C@](O)(C(=O)OC)[C@]5(C)O1)CNC3=O | 19 | 210 | 11 | 20 | 2600 |
| CCSCc1ccc2c(c1)c1c3c(c4c5ccccc5n5c4c1n2[C@@]1(C)O[C@@H]5C[C@]1(O)C(=O)OC)C(=O)NC3 | 28 | 61 | 21 | 28 | 400 |
| COC(=O)[C@@]1(O)C[C@H]2O[C@]1(C)n1c3ccc(CSC(C)C)cc3c3c4c(c5c6cc(CSC(C)C)ccc6n2c5c31)C(=O)NC4 | 45 | > 10000 | 31 | 89 | 980 |
| COCc1ccc2c(c1)c1c3c(c4c5cc(COC)ccc5n5c4c1n2[C@H]1C[C@](O)(C(=O)OC)[C@]5(C)O1)CNC3=O | 16 | 270 | 11 | 16 | 450 |
| COC(=O)[C@@]1(O)C[C@H]2O[C@]1(C)n1c3ccc(CO)cc3c3c4c(c5c6cc(CO)ccc6n2c5c31)C(=O)NC4 | 15 |  | 11 |  | 3 |
| CCSCc1ccc2c(c1)c1c3c(c4c5ccccc5n5c4c1n2[C@H]1C[C@](O)(C(=O)OC)[C@]5(C)O1)CNC3=O | 43 | > 1000 | 44 | 140 | 222 |

Next, values leading:

| IC50 [1] [nM] | IC50 [2] [nM] | IC50 [3] [nM] | IC50 [4] [nM] | IC50 (Protein kinase C (PKC)) [nM] | SMILES |
| --- | --- | --- | --- | --- | --- |
| 162 | > 1000 | 94 |  | > 10000 | C=CCSCc1ccc2c(c1)c1c3c(c4c5cc(CSCC=C)ccc5n5c4c1n2[C@H]1C[C@](O)(C(=O)OC)[C@]5(C)O1)CNC3=O |
| 303 | > 1000 | 143 | 627 | > 7600 | CCCCSCc1ccc2c(c1)c1c3c(c4c5cc(CSCCCC)ccc5n5c4c1n2[C@H]1C[C@](O)(C(=O)OC)[C@]5(C)O1)CNC3=O |
| 90 | > 10000 | 56 |  | > 10000 | CCCSCc1ccc2c(c1)c1c3c(c4c5cc(CSCCC)ccc5n5c4c1n2[C@H]1C[C@](O)(C(=O)OC)[C@]5(C)O1)CNC3=O |
| 360 | > 1000 | 123 |  | 1600 | COC(=O)[C@@]1(O)C[C@H]2O[C@]1(C)n1c3ccc(CSCCN(C)C)cc3c3c4c(c5c6cc(CSCCN(C)C)ccc6n2c5c31)C(=O)NC4 |
| 38 | > 10000 | 23.1 | 51 | > 10000 | CCSCc1ccc2c(c1)c1c3c(c4c5cc(CSCC)ccc5n5c4c1n2[C@H]1C[C@](O)(C(=O)OC)[C@]5(C)O1)CNC3=O [CEP-1347] |
